Measurements as given in patent publication US6737383B1, “Herbicidal oxadiazolidines” (priority 1999, dated 2004).

How the values were obtained:
wild oat = assay: Test B pre/postemergence wild oat; format: in vivo, Avena fatua
Summary of the method: (§1)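 Herbicidal effect was estimated by eye on a ten-point control scale after plants spent twelve to sixteen days in a greenhouse following soil or foliar treatment. Foliar sprays targeted plants at one to four leaves; all doses were formulated in a non-phytotoxic solvent with surfactant.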

bedstraw = assay: Test B pre/postemergence bedstraw; format: in vivo, Galium aparine
Summary of the method: as §1

sugar beet = assay: Test B pre/postemergence sugar beet; format: in vivo, Beta vulgaris
Summary of the method: as §1

velvetleaf = assay: Test B pre/postemergence velvetleaf; format: in vivo, Abutilon theophrasti
Summary of the method: as §1

rape = assay: Test B pre/postemergence rape; format: in vivo, Brassica napus
Summary of the method: as §1

pigweed = assay: Test B pre/postemergence pigweed; format: in vivo, Amaranthus retroflexus
Summary of the method: as §1

blackgrass = assay: Test B pre/postemergence blackgrass; format: in vivo, Alopecurus myosuroides
Summary of the method: as §1

morningglory = assay: Test B pre/postemergence morningglory; format: in vivo, Ipomoea hederacea
Summary of the method: as §1

smallflower flatsedge = assay: Test B flood test smallflower flatsedge; format: in vivo, Cyperus difformis
Summary of the method: (§2)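 Flood test on plants grown to the 2-leaf stage; treated plants kept in greenhouse twelve to sixteen days, then visually rated against controls on a 0 (no effect) to 10 (complete control) scale.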

surinam grass = assay: Test B pre/postemergence surinam grass; format: in vivo, Brachiaria decumbens
Summary of the method: as §1

cocklebur = assay: Test B pre/postemergence cocklebur; format: in vivo, Xanthium strumarium
Summary of the method: as §1

corn = assay: Test B pre/postemergence corn; format: in vivo, Zea mays
Summary of the method: as §1

bamyardgrass = assay: Test B flood test barnyardgrass; format: in vivo, Echinochloa crus-galli
Summary of the method: as §2

rice = assay: Test B flood test rice; format: in vivo, Oryza sativa
Summary of the method: as §2

crabgrass = assay: Test B pre/postemergence crabgrass; format: in vivo, Digitaria sanguinalis
Summary of the method: as §1

giant foxtail = assay: Test B pre/postemergence giant foxtail; format: in vivo, Setaria faberii
Summary of the method: as §1

[1] = Postemergence, Rate 62 g/ha, scale 0 to 10, 0 is no effect, 10 is complete control
[2] = Postemergence, Rate 250 g/ha, scale 0 to 10, 0 no effect, 10 complete control
[3] = Preemergence, Rate 62 g/ha, scale 0 to 10 (0 no effect, 10 complete control)
[4] = Preemergence, Rate 125 g/ha, scale 0 to 10 (0 no effect, 10 complete control)
[5] = Preemergence, Rate 250 g/ha, scale of 0 to 10 where 0 is no effect and 10 is complete control
[6] = Preemergence, Rate 500 g/ha, scale 0 (no effect) to 10 (complete control)
[7] = Rate 125 g/ha, Postemergence, scale 0 to 10, 0 no effect, 10 complete control
[8] = Rate 500 g/ha, Postemergence, scale 0 to 10, 0 no effect, 10 complete control
[9] = Rate 62 g/ha, headed Pre-emergence (flood test species), scale 0 to 10 (0 no effect, 10 complete control)
[10] = Rate 125 g/ha, Pre-emergence, flood test species, scale 0 to 10 where 0 is no effect and 10 is complete control
[11] = Rate 250 g/ha, headed Pre-emergence (flood test species), scale 0 to 10 (0 no effect, 10 complete control)
[12] = Rate 500 g/ha, headed Pre-emergence (flood test species), scale 0 to 10 (0 no effect, 10 complete control)

## Cc1cccc(C)c1-n1c(=O)on(C(=O)N(Cc2ccccc2)C(C)C)c1=O [Compound 69]
Wild oat; [1]
  Wild oats plant response rating: 0
Wild oat; [2]
  Wild oats plant response rating: 0
Wild oat; [3]
  Wild oats plant response rating: 0
Wild oat; [4]
  Plant response rating, Wild oats: 0
Wild oat; [5]
  Plant response rating, Wild oats: 0
Wild oat; [6]
  Wild oats plant response rating: 0
Wild oat; [7]
  Wild oats plant response rating: 0
Wild oat; [8]
  Wild oats plant response rating: 0
bedstraw; [1]
  Bedstraw plant response rating: 0
bedstraw; [2]
  Bedstraw plant response rating: 5
bedstraw; [3]
  Bedstraw plant response rating: 0
bedstraw; [4]
  Plant response rating, Bedstraw: 0
bedstraw; [5]
  Plant response rating, Bedstraw: 0
bedstraw; [6]
  Bedstraw plant response rating: 0
bedstraw; [7]
  Bedstraw plant response rating: 4
bedstraw; [8]
  Bedstraw plant response rating: 6
Sugar beet; [1]
  Sugarbeets plant response rating: 0
Sugar beet; [2]
  Sugarbeets plant response rating: 0
Sugar beet; [3]
  Sugarbeets plant response rating: 0
Sugar beet; [4]
  Plant response rating, Sugarbeets: 0
Sugar beet; [5]
  Plant response rating, Sugarbeets: 0
Sugar beet; [6]
  Sugarbeets plant response rating: 0
Sugar beet; [7]
  Sugarbeets plant response rating: 0
Sugar beet; [8]
  Sugarbeets plant response rating: 0
velvetleaf; [1]
  Velvetleaf plant response rating: 0
velvetleaf; [2]
  Velvetleaf plant response rating: 0
velvetleaf; [3]
  Velvetleaf plant response rating: 0
velvetleaf; [4]
  Plant response rating, Velvetleaf: 0
velvetleaf; [5]
  Plant response rating, Velvetleaf: 0
velvetleaf; [6]
  Velvetleaf plant response rating: 0
velvetleaf; [7]
  Velvetleaf plant response rating: 0
velvetleaf; [8]
  Velvetleaf plant response rating: 2
rape; [1]
  Rape plant response rating: 0
rape; [2]
  Rape plant response rating: 0
rape; [3]
  Rape plant response rating: 0
rape; [4]
  Plant response rating, Rape: 0
rape; [5]
  Plant response rating, Rape: 0
rape; [6]
  Rape plant response rating: 0
rape; [7]
  Rape plant response rating: 0
rape; [8]
  Rape plant response rating: 0
pigweed; [1]
  Redroot pigweed plant response rating: 0
pigweed; [2]
  Redroot pigweed plant response rating: 0
pigweed; [3]
  Redroot pigweed plant response rating: 0
pigweed; [4]
  Plant response rating, Redroot pigweed: 0
pigweed; [5]
  Plant response rating, Redroot pigweed: 0
pigweed; [6]
  Redroot pigweed plant response rating: 0
pigweed; [7]
  Redroot pigweed plant response rating: 0
pigweed; [8]
  Redroot pigweed plant response rating: 0
blackgrass; [1]
  Blackgrass plant response rating: 0
blackgrass; [2]
  Blackgrass plant response rating: 0
blackgrass; [3]
  Blackgrass plant response rating: 0
blackgrass; [4]
  Plant response rating, Blackgrass: 0
blackgrass; [5]
  Plant response rating, Blackgrass: 0
blackgrass; [6]
  Blackgrass plant response rating: 0
blackgrass; [7]
  Blackgrass plant response rating: 0
blackgrass; [8]
  Blackgrass plant response rating: 0
morningglory; [1]
  Morningglory plant response rating: 0
morningglory; [2]
  Morningglory plant response rating: 0
morningglory; [3]
  Morningglory plant response rating: 0
morningglory; [4]
  Plant response rating, Morningglory: 0
morningglory; [5]
  Plant response rating, Morningglory: 0
morningglory; [6]
  Morningglory plant response rating: 0
morningglory; [7]
  Morningglory plant response rating: 0
morningglory; [8]
  Morningglory plant response rating: 0
Smallflower flatsedge; [9]
  S. Flatsedge plant response rating: 0
Smallflower flatsedge; [10]
  S. Flatsedge plant response rating: 0
Smallflower flatsedge; [11]
  S. Flatsedge plant response rating: 0
Smallflower flatsedge; [12]
  Plant response rating, S. Flatsedge: 0
Surinam grass; [1]
  B. signalgrass plant response rating: 0
Surinam grass; [2]
  B. signalgrass plant response rating: 0
Surinam grass; [3]
  B. signalgrass plant response rating: 0
Surinam grass; [4]
  Plant response rating, B. signalgrass: 0
Surinam grass; [5]
  Plant response rating, B. signalgrass: 0
Surinam grass; [6]
  B. signalgrass plant response rating: 0
Surinam grass; [7]
  B. signalgrass plant response rating: 0
cocklebur; [1]
  Cocklebur plant response rating: 0
cocklebur; [2]
  Cocklebur plant response rating: 0
cocklebur; [3]
  Cocklebur plant response rating: 0
cocklebur; [4]
  Plant response rating, Cocklebur: 0
cocklebur; [5]
  Plant response rating, Cocklebur: 0
cocklebur; [6]
  Cocklebur plant response rating: 0
cocklebur; [7]
  Cocklebur plant response rating: 0
cocklebur; [8]
  Cocklebur plant response rating: 0
corn; [1]
  Corn plant response rating: 0
corn; [2]
  Corn plant response rating: 0
corn; [3]
  Corn plant response rating: 0
corn; [4]
  Plant response rating, Corn: 0
corn; [5]
  Plant response rating, Corn: 0
corn; [6]
  Corn plant response rating: 0
corn; [7]
  Corn plant response rating: 0
corn; [8]
  Corn plant response rating: 0
bamyardgrass; [9]
  Barnyardgrass plant response rating: 0
bamyardgrass; [10]
  Barnyardgrass plant response rating: 0
bamyardgrass; [11]
  Barnyardgrass plant response rating: 0
bamyardgrass; [12]
  Plant response rating, Barnyardgrass: 0
rice; [9]
  Rice plant response rating: 0
rice; [10]
  Rice plant response rating: 0
rice; [11]
  Rice plant response rating: 0
rice; [12]
  Plant response rating, Rice: 0
crabgrass; [1]
  Crabgrass plant response rating: 0
crabgrass; [2]
  Crabgrass plant response rating: 1
crabgrass; [3]
  Crabgrass plant response rating: 0
crabgrass; [4]
  Plant response rating, Crabgrass: 0
crabgrass; [5]
  Plant response rating, Crabgrass: 2
crabgrass; [6]
  Crabgrass plant response rating: 4
crabgrass; [7]
  Crabgrass plant response rating: 0
crabgrass; [8]
  Crabgrass plant response rating: 1
Giant foxtail; [1]
  Giant foxtail plant response rating: 0
Giant foxtail; [2]
  Giant foxtail plant response rating: 0
Giant foxtail; [3]
  Giant foxtail plant response rating: 0
Giant foxtail; [4]
  Plant response rating, Giant foxtail: 0
Giant foxtail; [5]
  Plant response rating, Giant foxtail: 4
Giant foxtail; [6]
  Giant foxtail plant response rating: 4
Giant foxtail; [7]
  Giant foxtail plant response rating: 0
Giant foxtail; [8]
  Giant foxtail plant response rating: 1
